The source made the active and inactive calls. No cut-off for these calls is given here.
Experiments:
MCF7 = assay: Antiproliferative activity against human MCF7 cells assessed as inhibition of cell proliferation incubated for 72 hrs by MTT assay; type: functional, cell-based; conditions: MCF7, 72 h
B16-F10 = assay: Antiproliferative activity against mouse B16-F10 cells assessed as inhibition of cell proliferation incubated for 72 hrs by MTT assay; type: functional, cell-based; conditions: B16-F10, 72 h
A549 = assay: Antiproliferative activity against human A549 cells assessed as inhibition of cell proliferation incubated for 72 hrs by MTT assay; type: functional, cell-based; conditions: A549, 72 h
SGC-7901 = assay: Antiproliferative activity against human SGC-7901 cells assessed as inhibition of cell proliferation incubated for 72 hrs by MTT assay; type: functional, cell-based; conditions: SGC-7901, 72 h
BGC-823 = assay: Antiproliferative activity against human BGC-823 cells assessed as inhibition of cell proliferation incubated for 72 hrs by MTT assay; type: functional, cell-based; conditions: BGC-823, 72 h
HGC-27 [1] = assay: Antiproliferative activity against human HGC-27 cells assessed as inhibition of cell proliferation incubated for 72 hrs by MTT assay; type: functional, cell-based; conditions: HGC-27, 72 h
HCT-116 = assay: Antiproliferative activity against human HCT-116 cells assessed as inhibition of cell proliferation incubated for 72 hrs by MTT assay; type: functional, cell-based; conditions: HCT-116, 72 h
HepG2 = assay: Antiproliferative activity against human HepG2 cells assessed as inhibition of cell proliferation incubated for 72 hrs by MTT assay; type: functional, cell-based; conditions: HepG2, 72 h
U-251 = assay: Antiproliferative activity against human U-251 cells assessed as inhibition of cell proliferation incubated for 72 hrs by MTT assay; type: functional, cell-based; conditions: U-251, 72 h
AGS [2] = assay: Antiproliferative activity against human AGS cells assessed as inhibition of cell proliferation incubated for 72 hrs by MTT assay; type: functional, cell-based
[3] = Selectivity index, ratio of IC50 for antiproliferative activity against human LO2 cells to IC50 for antiproliferative activity against human AGS cells; type: cell-based; conditions: LO2 cells and AGS cells, read-out: Ratio IC50
[4] = Antiproliferative activity against human LO2 cells assessed as inhibition of cell proliferation incubated for 72 hrs by MTT assay; type: toxicity, cell-based, L02
[5] = Selectivity index, ratio of IC50 for antiproliferative activity against human LO2 cells to IC50 for antiproliferative activity against human HGC-27 cells; type: toxicity, cell-based; conditions: LO2 cells and HGC-27 cells, read-out: Ratio IC50
HGC-27 [6] = assay: Antitumor activity against human HGC-27 cells xenografted in male BALB/c nude mouse assessed as tumor growth inhibition at 0.5 mg/kg, ip administered every day for 15 days relative to control; type: functional; conditions: HGC-27, 360 h, time 15 day, read-out: TGI
HGC-27 [7] = assay: Induction of apoptosis in human HGC-27 cells assessed as necrotic cells at 0.1 uM incubated for 48 hrs by annexin V-FITC and PI staining based flow cytometry analysis (reference value: 0.062%); type: functional
HGC-27 [8] = assay: Induction of autophagy in human HGC-27 cells assessed as increase in LC3 II/LC3 I ratio in tumor tissue at 25 to 100 mg/kg, ip administered daily; type: functional, organism-based; conditions: dose 25-100 mg/kg
AGS [9] = assay: Induction of apoptosis in human AGS cells assessed as viable cells at 0.1 uM incubated for 48 hrs by annexin V-FITC and PI staining based flow cytometry analysis (reference value: 92.0%); type: functional; conditions: read-out: Activity
[10] = Toxicity in male ICR mouse assessed as animal death at 2 mg/kg, ip measured after 4 days; type: organism-based; conditions: in vivo, 96 h, time 4 day
[11] = Acute toxicity in male ICR mouse assessed as enlarged hepatocyte volume at 2 mg/kg, ip measured after 7 days by H and E staining based light microscopic analysis; type: organism-based; conditions: in vivo, 168 h, time 7 day
[12] = Acute toxicity in male ICR mouse assessed as appearance of bright cytoplasm at 2 mg/kg, ip measured after 7 days by H and E staining based light microscopic analysis; type: organism-based; conditions: in vivo, 168 h, time 7 day
HGC-27 [13] = assay: Induction of apoptosis in human HGC-27 cells assessed as late apoptotic cells at 0.1 uM incubated for 48 hrs by annexin V-FITC and PI staining based flow cytometry analysis (reference value: 5.02%); type: functional
[14] = Acute toxicity in male ICR mouse assessed as appearance of empty cytoplasm at 2 mg/kg, ip measured after 7 days by H and E staining based light microscopic analysis; type: organism-based; conditions: in vivo, 168 h, time 7 day
[15] = Acute toxicity in male ICR mouse assessed as appearance of unclear cell boundaries at 2 mg/kg, ip measured after 7 days by H and E staining based light microscopic analysis; type: organism-based; conditions: in vivo, 168 h, time 7 day
[16] = Acute toxicity in male ICR mouse assessed as abnormal hepatocyte morphology at 2 mg/kg, ip measured after 7 days by H and E staining based light microscopic analysis; type: organism-based; conditions: in vivo, 168 h, time 7 day
[17] = Toxicity in male ICR mouse assessed as body weight loss at 2 mg/kg, ip measured after 4 days; type: organism-based; conditions: in vivo, 96 h, time 4 day
AGS [18] = assay: Induction of apoptosis in human AGS cells assessed as early apoptotic cells at 0.1 uM incubated for 48 hrs by annexin V-FITC and PI staining based flow cytometry analysis (reference value: 4.44%); type: functional
AGS [19] = assay: Induction of apoptosis in human AGS cells assessed as necrotic cells at 0.1 uM incubated for 48 hrs by annexin V-FITC and PI staining based flow cytometry analysis (reference value: 0.44%); type: functional
AGS [20] = assay: Induction of apoptosis in human AGS cells assessed as late apoptotic cells at 0.1 uM incubated for 48 hrs by annexin V-FITC and PI staining based flow cytometry analysis (reference value: 3.15%); type: functional
HGC-27 [21] = assay: Induction of apoptosis in human HGC-27 cells assessed as viable cells at 0.1 uM incubated for 48 hrs by annexin V-FITC and PI staining based flow cytometry analysis (reference value: 91.8%); type: functional; conditions: read-out: Activity
HGC-27 [22] = assay: Induction of apoptosis in human HGC-27 cells assessed as early apoptotic cells at 0.1 uM incubated for 48 hrs by annexin V-FITC and PI staining based flow cytometry analysis (reference value: 3.13%); type: functional

Structure (SMILES) | IC50 (MCF7) | IC50 (B16-F10) | IC50 (A549) | IC50 (SGC-7901) | IC50 (BGC-823) | IC50 (HGC-27 [1]) | IC50 (HCT-116) | IC50 (HepG2) | IC50 (U-251) | IC50 (AGS [2]) | selectivity ratio [3] | IC50 at 72 h [4] | selectivity ratio [5] | other results
CC(C)[C@]12O[C@H]1[C@@H]1O[C@]13[C@]1(O[C@H]1C[C@H]1C4=C(CC[C@@]13C)C(=S)O[C@H]4O)[C@H]2O | > 10000 nM | > 10000 nM | > 10000 nM | > 10000 nM | > 10000 nM | > 10000 nM | > 10000 nM | > 10000 nM | > 10000 nM | > 10000 nM |  |  |  | 
CC(C)[C@]12O[C@H]1[C@@H]1O[C@@]13[C@@]1(C)CCC4=C(COC4=S)[C@@H]1C[C@@H]1O[C@@]13C2=O | 1790 nM | 1030 nM | > 10000 nM | 1880 nM | 1330 nM | 620 nM | 520 nM | 630 nM | 2430 nM | 1030 nM | 3.26 | 3350 nM | 5.43 | 
CC(C)[C@]12O[C@H]1[C@@H]1O[C@@]13[C@@]1(C)CCC4=C(COC4=O)[C@@H]1C[C@@H]1O[C@@]13C2=O [TRIPTONIDE] | 50 nM | 20 nM | 460 nM | 110 nM | 90 nM | 100 nM | 130 nM | 50 nM | 20 nM | 50 nM |  |  |  | 
CC(C)[C@]12O[C@H]1[C@@H]1O[C@]13[C@]1(O[C@H]1C[C@H]1C4=C(CC[C@@]13C)C(=O)OC4)[C@@H]2O [TRIPTOLIDE] | 70 nM | 3 nM | 40 nM | 40 nM | 60 nM | 20 nM | 10 nM | 60 nM | 20 nM | 40 nM | 1.08 | 40 nM | 1.89 | inhibition in vivo at 0.5 mg/kg (HGC-27 [6]): 97.2%; Activity (HGC-27 [7]): 0.16%; Activity (HGC-27 [8]): inactive; viability at 0.1 µM (AGS [9]): 10%; Activity [10]: Toxic; Activity [11]: Toxic; Activity [12]: Toxic; Activity (HGC-27 [13]): 17.4%; Activity [14]: Toxic; Activity [15]: Toxic; Activity [16]: Toxic; Activity [17]: Toxic; Activity (AGS [18]): 50.5%; Activity (AGS [19]): 1.65%; Activity (AGS [20]): 37.9%; viability at 0.1 µM (HGC-27 [21]): 48.5%; Activity (HGC-27 [22]): 34%
CC(C)[C@]12O[C@H]1[C@@H]1O[C@]13[C@]1(O[C@H]1C[C@H]1C4=C(CC[C@@]13C)C(=S)OC4)[C@H]2O | 3040 nM | 1460 nM | > 10000 nM | 4830 nM | 3660 nM | 700 nM | 1340 nM | 1870 nM | 6320 nM | 2580 nM | 2.68 | 6910 nM | 12.2 | 
CC(C)[C@]12O[C@H]1[C@@H]1O[C@@]13[C@@]1(C)CCC4=C([C@H](O)OC4=S)[C@@H]1C[C@@H]1O[C@@]13C2=O | > 10000 nM | > 10000 nM | > 10000 nM | > 10000 nM | > 10000 nM | > 10000 nM | 8530 nM | > 10000 nM | > 10000 nM | > 10000 nM |  |  |  | 
CC(C)[C@]12O[C@H]1[C@@H]1O[C@]13[C@]1(O[C@H]1C[C@H]1C4=C(CC[C@@]13C)C(=S)O[C@H]4O)[C@@H]2O | > 10000 nM | > 10000 nM | > 10000 nM | > 10000 nM | > 10000 nM | > 10000 nM | 5590 nM | > 10000 nM | > 10000 nM | > 10000 nM |  |  |  | 

— ChEMBL document CHEMBL6114967, “Design and synthesis of novel sulfur-substituted triptolide with the ability to induce autophagy through inhibition of SRSF1 expression” (Eur J Med Chem, 2025)
